Data from patent US9765092B2, “Tricyclic piperidine compounds” (ACTELION PHARMACEUTICALS LTD, priority 2013, dated 2017).

Target: human TPH1 (Homo sapiens (Human), UniProt P17752)
Assay: Biochemical in vitro assay using fluorescence readout (TPH1 inhibition)
Conditions: full length human TPH1, 40 μM L-tryptophan, 15° C., 60 minutes, fluorescence at 540 nm; mean if determined several times

Sequence of human TPH1 (P17752 whole entry): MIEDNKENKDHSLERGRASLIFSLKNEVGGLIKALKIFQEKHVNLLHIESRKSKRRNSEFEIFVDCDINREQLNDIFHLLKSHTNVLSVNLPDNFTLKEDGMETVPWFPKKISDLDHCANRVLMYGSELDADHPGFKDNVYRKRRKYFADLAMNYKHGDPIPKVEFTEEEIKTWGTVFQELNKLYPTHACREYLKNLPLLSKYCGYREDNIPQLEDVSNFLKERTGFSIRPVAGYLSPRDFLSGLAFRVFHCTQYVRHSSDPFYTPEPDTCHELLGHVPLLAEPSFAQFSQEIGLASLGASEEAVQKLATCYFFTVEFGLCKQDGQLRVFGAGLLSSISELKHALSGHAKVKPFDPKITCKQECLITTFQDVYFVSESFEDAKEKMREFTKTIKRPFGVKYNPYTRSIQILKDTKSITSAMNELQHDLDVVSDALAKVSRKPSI

Molecule	IC50 [nM]
Cc1nn2c3c(nc2s1)CCN(C(=O)COc1ccc(C(=O)NCC#N)nc1Cl)C3c1ccc(Cl)cc1F (stereo not shown) [Example 1.4.23, 6-Chloro-5-(2-(5-(4-chloro-2-fluorophenyl)-2-methyl-7,8-dihydro-[1,3,4]thiadiazolo[2′,3′:2,3]imidazo[4,5-c]pyridin-6(5H)-yl)-2-oxoethoxy)-N-(cyano-methyl)picolinamide]	247
Cc1nn2c3c(nc2s1)CCN(C(=O)COc1ccc(NS(C)(=O)=O)nc1Cl)C3c1cc(C(=O)N(C)C)cs1 (stereo not shown) [Example 1.9.4, 5-(6-(2-((2-Chloro-6-(methylsulfonamido)pyridin-3-yl)oxy)acetyl)-2-methyl-5,6,7,8-tetra-hydro-[1,3,4]thiadiazolo[2′,3′:2,3]imidazo[4,5-c]pyridin-5-yl)-N,N-dimethylthiophene-3-carboxamide]	32
Cc1nn2c3c(nc2s1)CCN(C(=O)COc1ccc(C2CC2)cc1Cl)C3c1ccc(Cl)cc1F (stereo not shown) [Example 1.4.34, 1-(5-(4-Chloro-2-fluorophenyl)-2-methyl-7,8-dihydro-[1,3,4]thiadiazolo[2′,3′:2,3]imidazo[4,5-c]pyridin-6(5H)-yl)-2-(2-chloro-4-cyclopropylphenoxy)-ethanone]	4
Cc1nn2c3c(nc2s1)CCN(C(=O)COc1ccc(N2CCOCC2)nc1Cl)C3c1ccc(C(=O)N(C)C)o1 (stereo not shown) [Example 1.40.2, 5-(6-(2-((2-Chloro-6-morpholinopyridin-3-yl)oxy)acetyl)-2-methyl-5,6,7,8-tetrahydro-[1,3,4]thiadiazolo[2′,3′:2,3]imidazo[4,5-c]pyridin-5-yl)-N,N-dimethylfuran-2-carboxamide]	12
Cc1nn2c3c(nc2s1)CCN(C(=O)COc1ccc(C(F)(F)F)cc1Cl)C3c1cnc(N(C)C)s1 (stereo not shown) [Example 1.22.5, 2-(2-Chloro-4-(trifluoromethyl)phenoxy)-1-(5-(2-(dimethylamino)thiazol-5-yl)-2-methyl-7,8-dihydro-[1,3,4]thiadiazolo[2′,3′:2,3]imidazo[4,5-c]pyridin-6(5H)-yl)ethanone]	130

Same assay, conditions: human TPH1, fluorescence readout

Molecule	IC50 [nM]
COCCOc1ccc(C2c3c(nc4sc(C)nn34)CCN2C(=O)COc2ccc(NS(C)(=O)=O)nc2Cl)c(F)c1 (stereo not shown) [Example 1.83.2, N-(6-chloro-5-(2-(5-(2-fluoro-4-(2-methoxyethoxy)phenyl)-2-methyl-7,8-dihydro-[1,3,4]thiadiazolo[2′,3′:2,3]imidazo[4,5-c]pyridin-6(5H)-yl)-2-oxoethoxy)pyridin-2-yl)methanesulfonamide]	18
Cc1cc(Cl)ccc1OCC(=O)N1CCc2nc3sccn3c2C1c1c(C)noc1C (stereo not shown) [Example 6.5.4, 2-(4-chloro-2-methylphenoxy)-1-(5-(3,5-dimethylisoxazol-4-yl)-7,8-dihydrothiazolo[2′,3′:2,3]imidazo[4,5-c]-pyridin-6(5H)-yl)ethanone]	27
Cc1nn2c3c(nc2s1)CCN(C(=O)COc1ccc(C(F)(F)F)nc1)C3c1ccc(C2CC2)cc1F (stereo not shown) [Example 1.6.4, 1-(5-(4-cyclopropyl-2-fluorophenyl)-2-methyl-7,8-dihydro-[1,3,4]thiadiazolo[2′,3′:2,3]imidazo[4,5-c]pyridin-6(5H)-yl)-2-((6-(trifluoromethyl)pyridin-3-yl)oxy)ethanone]	68
CCc1nc(C)ccc1OC1(C(=O)N2CCc3nc4sc(C)nn4c3C2c2ccc(C3CC3)cc2F)CC1 (stereo not shown) [Example 1.6.18, (5-(4-cyclopropyl-2-fluorophenyl)-2-methyl-7,8-dihydro-[1,3,4]thiadiazolo[2′,3′:2,3]imidazo[4,5-c]pyridin-6(5H)-yl)(1-((2-ethyl-6-methylpyridin-3-yl)oxy)cyclopropyl)methanone]	186
COC(=O)c1cnc(C2c3c(nc4sc(C)nn34)CCN2C(=O)COc2ccc(N3CCOCC3)nc2Cl)s1 (stereo not shown) [Example 1.28.1, Methyl 2-(6-(2-((2-chloro-6-morpholinopyridin-3-yl)oxy)acetyl)-2-methyl-5,6,7,8-tetrahydro-[1,3,4]thiadiazolo [2′,3′:2,3]imidazo[4,5-c]pyridin-5-yl)thiazole-5-carboxylate]	7
Cc1nn2c3c(nc2s1)CCN(C(=O)COc1ccc(NS(C)(=O)=O)nc1Cl)C3c1ncc(F)cc1C (stereo not shown) [Example 1.75.1, N-(6-chloro-5-(2-(5-(5-fluoro-3-methylpyridin-2-yl)-2-methyl-7,8-dihydro-[1,3,4]thiadiazolo[2′,3′:2,3]imidazo[4,5-c]pyridin-6(5H)-yl)-2-oxoethoxy)pyridin-2-yl)methanesulfonamide]	9
Cc1ccc(C2c3c(nc4sc(CF)nn34)CCN2C(=O)COc2ccc(NS(C)(=O)=O)nc2Cl)c(F)c1 (stereo not shown) [Example 7.3.1, N-(6-chloro-5-(2-(5-(2-fluoro-4-methylphenyl)-2-(fluoromethyl)-7,8-dihydro-[1,3,4]thiadiazolo[2′,3′:2,3]imidazo[4,5-c]pyridin-6(5H)-yl)-2-oxoethoxy)pyridin-2-yl)methanesulfonamide]	8
CCc1c(OCC(=O)N2CCc3nc4sc(C)nn4c3C2c2ccc(C3CC3)cc2F)ccc(C)[n+]1[O-] (stereo not shown) [Example 1.6.20, 3-(2-(5-(4-cyclopropyl-2-fluorophenyl)-2-methyl-7,8-dihydro-[1,3,4]thiadiazolo[2′,3′:2,3]imidazo[4,5-c]pyridin-6(5H)-yl)-2-oxoethoxy)-2-ethyl-6-methylpyridine-1-oxide]	94
Cc1cc(Cl)ccc1OCC(=O)N1CCc2nc3sccn3c2C1c1cc2cccnc2s1 (stereo not shown) [Example 6.14.2, 2-(4-chloro-2-methylphenoxy)-1-(5-(thieno[2,3-b]-pyridin-2-yl)-7,8-dihydrothiazolo[2′,3′:2,3]imidazo[4,5-c]pyridin-6(5H)-yl)ethanone]	39
Cc1nn2c3c(nc2s1)CCN(C(=O)COc1ccc(NS(C)(=O)=O)nc1Cl)C3c1ccc(OC(F)(F)F)cc1F (stereo not shown) [Example 1.77.1, N-(6-chloro-5-(2-(5-(2-fluoro-4-(trifluoromethoxy)phenyl)-2-methyl-7,8-dihydro-[1,3,4]thiadiazolo[2′,3′:2,3]imidazo[4,5-c]pyridin-6(5H)-yl)-2-oxoethoxy)pyridin-2-yl)methanesulfonamide]	13
Cc1nn2c3c(nc2s1)CCN(C(=O)COc1ccc(N2CCCS2(=O)=O)nc1Cl)C3c1ccc(Cl)cc1F (stereo not shown) [Example 1.4.49, 1-(5-(4-chloro-2-fluorophenyl)-2-methyl-7,8-dihydro-[1,3,4]thiadiazolo[2′,3′:2,3]imidazo[4,5-c]pyridin-6(5H)-yl)-2-((2-chloro-6-(1,1-dioxidoisothiazolidin-2-yl)pyridin-3-yl)oxy)ethanone]	9
Cc1nn2c3c(nc2s1)CCN(C(=O)COc1ccc(Cl)cc1C)C3c1nc(-c2ccccc2)no1 (stereo not shown) [Example 1.11.1, 2-(4-chloro-2-methylphenoxy)-1-(2-methyl-5-(3-phenyl-1,2,4-oxadiazol-5-yl)-7,8-dihydro-[1,3,4]thiadiazolo [2′,3′:2,3]imidazo[4,5-c]pyridin-6(5H)-yl)ethanone]	35
CCOC(=O)c1coc(C2c3c(nc4sc(C)nn34)CCN2C(=O)COc2ccc(N3CCOCC3)nc2Cl)n1 (stereo not shown) [Example 1.29.1, Ethyl 2-(6-(2-((2-chloro-6-morpholinopyridin-3-yl)oxy)acetyl)-2-methyl-5,6,7,8-tetrahydro-[1,3,4]thiadiazolo [2′,3′:2,3]imidazo[4,5-c]pyridin-5-yl)oxazole-4-carboxylate]	20
Cc1nn2c3c(nc2s1)CCN(C(=O)COc1ccc(C#N)nc1Cl)C3c1ccc(Cl)nc1F (stereo not shown) [Example 1.16.5, 6-chloro-5-(2-(5-(6-chloro-2-fluoropyridin-3-yl)-2-methyl-7,8-dihydro-[1,3,4]thiadiazolo[2′,3′:2,3]imidazo[4,5-c]pyridin-6(5H)-yl)-2-oxoethoxy)picolinonitrile]	35
N-(5-(2-(5-(4-(aminomethyl)-2-fluorophenyl)-2-methyl-7,8-dihydro-[1,3,4]thiadiazolo[2′,3′:2,3]imidazo[4,5-c]pyridin-6(5H)-yl)-2-oxoethoxy)-6-chloropyridin-2-yl)methanesulfonamide [Example 1.78.1]	10
COc1ccc(C2c3c(nc4sccn34)CCN2C(=O)COc2ccc(CN3CCOCC3)cc2Cl)c(F)c1 (stereo not shown) [Example 6.3.1, 2-(2-chloro-4-(morpholinomethyl)phenoxy)-1-(5-(2-fluoro-4-methoxyphenyl)-7,8-dihydrothiazolo[2′,3′:2,3]-imidazo[4,5-c]pyridin-6(5H)-yl)ethanone]	5
Cc1nn2c3c(nc2s1)CCN(C(=O)COc1cccc2c1ccn2C)C3c1ccc(Cl)cc1F (stereo not shown) [Example 1.4.62, 1-(5-(4-chloro-2-fluorophenyl)-2-methyl-7,8-dihydro-[1,3,4]thiadiazolo[2′,3′:2,3]imidazo[4,5-c]pyridin-6(5H)-yl)-2-((1-methyl-1H-indol-4-yl)oxy)ethan-1-one]	15
COC1(C)CN(c2ccc(OCC(=O)N3CCc4nc5sc(C)nn5c4[C@@H]3c3ncc(C)cc3F)c(Cl)n2)C1 [Example 1.31.11, (R)-2-((2-chloro-6-(3-methoxy-3-methylazetidin-1-yl)pyridin-3-yl)oxy)-1-(5-(3-fluoro-5-methylpyridin-2-yl)-2-methyl-7,8-dihydro-[1,3,4]thiadiazolo[2′,3′:2,3]imidazo[4,5-c]pyridin-6(5H)-yl)ethanone]	23
CCc1nc(C(=O)NC2CC2)ccc1OCC(=O)N1CCc2nc3sc(CF)nn3c2C1c1sc(C)nc1C (stereo not shown) [Example 7.4.1, N-cyclopropyl-5-(2-(5-(2,4-dimethylthiazol-5-yl)-2-(fluoromethyl)-7,8-dihydro-[1,3,4]thiadiazolo[2′,3′:2,3]imidazo[4,5-c]pyridin-6(5H)-yl)-2-oxoethoxy)-6-ethylpicolinamide]	7
CN(C)C(=O)c1ccc(OCC(=O)N2CCc3nc4sccn4c3C2c2sc(C(=O)N(C)C)cc2F)c(Cl)n1 (stereo not shown) [Example 6.9.2, 6-chloro-5-(2-(5-(5-(dimethylcarbamoyl)-3-fluoro-thiophen-2-yl)-7,8-dihydrothiazolo[2′,3′:2,3]imidazo-[4,5-c]pyridin-6(5H)-yl)-2-oxoethoxy)-N,N-dimethylpicolinamide]	5
